Measured values: patent publication US20060051787A1, “Quantitative PCR for analysis of DNA damage induced by PGHS-2 (COX-2) or other factors” (priority 2004, published 2006)
Several values for one entry are separate records, joined by “and”; a condition that tells them apart may be missing. Identical values can stand only once. Like-named read-outs stand apart in the source and are kept apart here.

Assays:
[1] = tested on: XPA Cells #12 (PGHS+/neo+); assay: Cytotoxicity: colony-forming ability of PGHS-2 expressing XPA cells; assay type: cell-based, human; settings: for Colony Number (% of Control): treated two hours, incubated 10 days
Description: (§1) XPA cells #12 (PGHS^+/neo^+) and #32 (PGHS^−/neo^+) were selected for cytotoxicity and mutagenicity assays. Cytotoxicity assays were carried out by assaying the loss of colony-forming ability as previously described (1).
(§2) Cells were treated as follows: (a) no treatment, (b) 100 μM arachidonic acid (AA), (c) 200 μM AA, (d) 5 μM benzo(a)pyrene-7,8-dihydrodiol (BPD), (e) 5 μM BPD+100 μM AA, (f) 5 μM BPD+200 μM AA, (g) 100 μM butylated hydroxyanisole (BHA), (h) 100 μM BHA+5 μM BPD+100 AA and (i) 100 μM BHA+5 μM BPD+200 μM AA. BPD was dissolved in tetrahydrofuran.
(§3) Cytotoxicity of environmental toxicants to PGHS-2^+/neo^+ (PGHS-2-dependent) XPA and wild type cells were assayed by measuring colony-forming ability. Mutagenicity of the chemical was assayed by measuring induction of 6-thioguanine resistance of the cells, which was a result of mutation of the cells to the HPRT-phenotype.
(§4) Cytotoxicity assays were carried out by assaying the loss of colony-forming ability. Briefly, after harvesting, cells were plated at a cloning density of 600 cells/well in six-well plates and incubated for 7-12 days. The colonies were washed with PBS, fixed with methanol, stained with 0.04% methylene blue, and counted.

8.8 kb mitochondrial DNA = assay: QPCR (14 cycles) followed by real-time PCR DNA damage analysis in XPA cells; assay type: cell-based, human
Source text: QPCR products of 2.3 kb and 8.8 kb mitochondrial DNA were quantitated by real-time PCR with primers to produce a 112 bp fragment using the ABI PRISM® 7700 (Applied Biosystems). DNA replication was monitored by addition of a double-stranded DNA binding dye, SYBR® Green I (Applied Biosystems).
Real-time PCR primers selected from the […].
Concentrations of 8.8 kb PCR products were obtained after treatment of PGHS-2-expressing DNA damage repair deficient cells with t-BOOH (PGHS-2 substrate) and BPD (a premutagen) using a standard curve. The standard curve was obtained by real-time PCR with various concentrations of the 8.8 kb DNA.
QPCR of a 16.2 kb, 8.8 kb and 2.3 kb mitochondrial DNA and 2.3 kb p53 and 0.5 kb β-globin nuclear DNA were carried out using biotinylated nucleotide primers. The reaction mixture contained 15 ng of template DNA, 1.2 mM MgSO4, 0.2 mM deoxynucleotide triphosphates, 0.2 μM biotinylated primers, and 1 unit of Platinum Pfx DNA polymerase (Life Technologies). Alternatively, the QPCR was carried out with the GeneAmp XL PCR kit (PerkinElmer/Roche) which contains rTth DNA polymerase XL and XL PCR buffer as previously described (9).
The PCR was initiated with a 90° C. hot-start addition of the polymerase. Initial denaturation was carried out for 1 min at 94° C. followed by cycles of denaturation at 94° C. for 15 sec, primer extension and annealing at 66° C. for 12 min and final extension at 72° C. for 10 minutes. The DNA product was separated by electrophoresis on 1% agarose gel and visualized by ethidium bromide staining.
Best fitting real-time PCR primers were selected using Primer Express program (Applied Biosystems). The PCR primers selected for a real-time PCR were used to replicate 112 bp of PCR for both 8.8 kb and 2.3 kb mitochondrial DNA. The primer binding sites are located in the middle 2.1 kb section (the missing part in 6.7 kb internal control) of 8.8 kb fragment. […] The real-time PCR primers for 112 bp product (Tm, 79° C.) are […] […]
Standard curve for real-time PCR analysis was obtained with the 8.8 kb standards ranging from 0.012 to 1200 pg. Concentrations of the 8.8 kb DNA preparation were spectrophotometrically measured. […] Using the standard curve to obtain relationship of log concentrations of various standards and Ct, QPCR product levels of the samples were calculated.
Real-time PCR analysis was carried out and specificity of the real-time PCR of the 8.8 kb fragment was analyzed by (a) agarose gel electrophoresis of 40 cycle replicated 112 bp real-time PCR product and (b) melting curve of the 112 bp product. […]
Single 112 bp real-time PCR product was detected in each sample and a sharp melting curve at 79° C., which agreeded with the theoretical Tm, was obtained. […]

[2] = tested on: XPA Cells #32 (PGHS-/neo+); assay: Cytotoxicity: colony-forming ability of negative control XPA cells; assay type: cell-based, human; settings: treated two hours, incubated 10 days
Description: as §1, §2, §3, §4

[3] = tested on: XPA human skin fibroblast cell line which expressed cytochrome P450 1A1; settings: by an endogenously formed metabolite of BPD; cited from earlier work
[4] = tested on: 16.2 kb mitochondrial fragment; settings: cited from earlier work
[5] = tested on: 17.7 kb fragment of the nuclear beta-globin gene; settings: cited from earlier work
[6] = tested on: 16.2 kb mitochondrial DNA; assay: QPCR DNA damage analysis in XPA cells #12; assay type: cell-based, human; settings: 0.5 mM t-BOOH; 3 hours; 26 cycles; FIG. 5
Description: Panel A, ethidium bromide staining of biotinylated mitochondrial DNA fragments (16.2 kb), Panel B, visualization of the biotinylated mitochondrial DNA fragments by chemiluminescent assay (ECL) system, Panel C, a negative control, ethidium bromide staining of biotinylated β-globin (0.55 kb) DNA fragments and Panel D, visualization of the biotinylated β-globin DNA fragments by an ECL system.
Lane 1, bp standards, lanes 2 and 3, cells treated with 1 mM t-BOOH+solvent for BPD (tetrahydrofuran), lanes 4 and 5, cells treated with 1 mM t-BOOH+5 μM BPD, lanes 6 and 7, cells treated with solvent for AA (ethanol), lanes 8 and 9, cells treated with 100 μM AA and lanes 10 and 11, cells treated with 100 μM AA+5 μM BPD. Cells were treated for 3 hours at 37° C., DNA was isolated and QPCRs were carried out using biotinylated nucleotide primers. […]
DNA damage repair deficient XPA cells #12 (PGHS-2+) were grown and cells were treated for three hours at 37° C. with 0.5 mM or 1 mM t-BOOH with or without 5 μM to 15 μM BPD. […] DNA fragments were transferred to a nitrocellulose membrane and visualized by a streptavidin-horseradish peroxidase/chemiluminescent (ECL) system followed by quantitation with a densitometer. Visualization of the DNA fragments by the ECL system amplified intensity of each DNA band and made it possible to quantitate each DNA band using a densitometer. […]

[7] = 200 μM for 15 minutes, in 1.5 hours
[8] = 200 μM for 60 minutes, in 3.5 hours

O[C@H]1C=Cc2c(cc3ccc4cccc5ccc2c3c45)[C@@H]1O (relative stereo) [BPD, benzo(a)pyrene-trans-7,8-dihydrodiol]
Colony Number (% of Control) ([1]; 5 μM BPD): 214.3 ± 7.1 % of Control
colony number (text summary of Table 1) ([1]; treatment for two hours): dramatically increased colony number
% mean value of control, 112.47 pg (8.8 kb mitochondrial DNA; 5 mM BPD, samples 1 and 2): 93.1 ± 2.7% and 111.9 ± 2.3%
pg DNA after 14 cycles of first PCR (8.8 kb mitochondrial DNA; 5 mM BPD, samples 1 and 2 = separate cell culture experiments): 104.71 ± 3.02 pg and 125.89 ± 2.59 pg
Colony Number (% of Control) ([2]; 5 μM BPD): 88.0 ± 3.3 % of Control
mutation frequencies versus wild type cell line [3]: approximately three-fold higher mutation frequencies

CCCCC/C=C\C/C=C\C/C=C\C/C=C\CCCC(=O)O [AA, arachidonic acid]
colony number (text summary of Table 1) [1]: dramatically increased colony number
Colony Number (% of Control) ([1]; 100 μM AA): 133.3 ± 12.6 % of Control
Colony Number (% of Control) ([1]; 200 μM AA): 140.5 ± 8.3 % of Control
Colony Number (% of Control) ([2]; 100 μM AA): 70.1 ± 0.6 % of Control
Colony Number (% of Control) ([2]; 200 μM AA): 72.0 ± 6.2 % of Control

COc1ccc(O)c(C(C)(C)C)c1 [BHA, butylated hydroxyanisole]
Colony Number (% of Control) ([1]; 100 μM BHA): 211.9 ± 4.8 % of Control
colony number (text summary of Table 1) ([1]; treatment for two hours): dramatically increased colony number
Colony Number (% of Control) ([2]; 100 μM BHA): 96.0 ± 3.8 % of Control

OO [hydrogen peroxide]
repair of DNA damage [4, 7]: completely repaired
repair of DNA damage [4, 8]: no repair
level of PCR products of the mitochondrial fragment relative to that of the nuclear beta-globin gene ([4]; 200 and 400 μM for an hour): 20%-30%
repair of DNA damage [5, 7]: completely repaired
repair of DNA damage [5, 8]: complete DNA repair

CC(C)(C)OO [t-BOOH, tert-butyl hydroperoxide]
16.2 kb PCR product level [6]: −50 % of control
% mean value of control, 112.47 pg (8.8 kb mitochondrial DNA; 0.5 mM t-BOOH, samples 1 and 2): 70.6 ± 2.0% and 46.7 ± 1.9%
pg DNA after 14 cycles of first PCR (8.8 kb mitochondrial DNA; 0.5 mM t-BOOH, samples 1 and 2): 79.40 ± 2.24 pg and 52.48 ± 2.19 pg
